According to patent US20050004007A1, “Promotion of adoptosis in cancer cells by co-administration of cyclin dependent kinase inhibitiors and cellular differentiation agents” (priority 2000, published 2005):

Key:
Format in all cases: cell-based, human
U937 cells [1] = assay: loss of mitochondrial membrane potential (DiOC6 uptake, flow cytometry); conditions: for percentage of cells displaying a loss of Δψm: 100 nM FP, 1 mM SB, 12 or 24 hr
Experimental: Assessment of mitochondrial membrane potential. At designated times, 1 ml aliquots of cells (2×10^5) were harvested and incubated with 40 nM DiOC6 for 15 minutes at 25° C. as previously described [Zamzami et al 1995]or at 37° C. Samples were analyzed using a Becton Dickinson FACScan flow cytometer (excitation λ=488 nm; emission λ=525 nm). […] Data acquisition and analysis was performed using […] Software (Becton Dickinson, Mansfield, Mass.).

U937 cells [2] = assay: CD11b surface differentiation marker expression (flow cytometry); conditions: 1 mM SB, 100 nM FP, 48 h
Experimental: Differentiation studies. Expression of the monocytic differentiation marker, CD11b, was monitored by direct immunofluorescence staining and flow cytometric analysis as previously described [Freemerman et al. 1997]. Following drug treatment, suspension and adherent cells were enumerated by a Coulter Counter and 2×10^6 cells were pelleted by centrifugation. The supernatant was aspirated and the cells were resuspended in 300 μl of ice-cold PBS. Two 100 μl aliquots from each sample were then combined with either phycoerythrin-1 (10 μl) or the IgG control. Samples were incubated for 20 min at 4° C. and diluted in PBS (1 ml). Sample data were collected using a Becton Dickinson FACScan flow cytometer and analyzed with Verity Winlist Software (Verity; Topsham, Me.). […] U937 cells were transfected with a full-length p21^WAF1/CIP1 promoter (base pairs 1-2326) as described by Chinery et al. [Chinery et al. 1997] utilizing electroporation (Eppendorf Multiporator, 620V, 60 μs) in hypoosmolar buffer. In each experiment, pSV-βgal (Promega), containing the β-galactosidase gene under the control of the constitutively active SV40 promoter and enhancer, was co-transfected with the luciferase reporter at a ratio of 1:5 (w/w) to normalize for transfection efficiency. The cells were incubated overnight in complete media and treated with 10 nM PMA, 100 nM FP, or 10 nM PMA/100 nM FP for 3 or 6 h. At indicated times, cells were washed in serum-free media, resuspended in 0.25M Tris-HCl pH 7.8, lysed by rapid freeze-thaw, centrifuged and the supernatant frozen at −70° C. Lysates (20 μL) were mixed with luciferase assay reagent (100 μL) and monitored for 20 seconds in a luminometer (Monolight 2010). For β-galactosidase activity, lysates (50 μL) were mixed in triplicate with an equal volume of […] assay buffer (2×) in a 96-well plate and incubated overnight. The reaction was terminated by addition of NaCO3 and absorbance was measured at 405 nm in a Vmax plate reader (Molecular Devices). Activity was determined by comparison to a standard curve. […]

pRb = assay: Western analysis of underphosphorylated pRb in U937 cells; conditions: for levels of underphosphorylated pRb: FP 100 nM, SB 1 mM, 12 or 24 hr
Experimental: Western analysis. Equal quantities of protein (15 μg/condition for MAPK, 40 μg/condition for cytochrome c, or 25 μg/condition) were separated by SDS-PAGE [underphosporylated pRB (7.5%), poly(ADP-ribose)polymerase or PARP (8.0%), p44/p42 MAPK (10%), p21, p27, procaspase 3 (12%), and cytochrome c (15%)] and electroblotted onto nitrocellulose. Western analysis of p44/p42 MAPK protein was performed according to the manufacturer's instructions (New England Biolabs); otherwise, studies were performed as previously described [Wang et al, 1998]. Briefly, U937 cells (5×10^6) were pelleted by centrifugation, resuspended in 50 μl PBS, lysed by the addition of 2× Laemmli buffer and boiled for 5 min. Proteins were quantified with Coomassie protein assay reagent. Blots were blocked in PBS-T/5% milk, washed twice with PBS-T, and incubated overnight at 4° C. with the appropriate primary antibody. The blots were washed with PBS-T and incubated with a horseradish-peroxidase conjugated secondary antibody diluted appropriately in PBS-T/5% mill. Following incubation, blots were developed by enhanced chemiluminescence exposure to Kodak X-OMAT film (Eastman Kodak Co., Rochester, N.Y.) and reprobed with antibodies directed against actin to control for equal loading of protein.
(§1) Alternatively, whole cell-pellets were washed twice in PBS, resuspended in PBS, and lysed by the addition of I volume of loading buffer. Lysates were boiled for 10 min, centrifuged at 12,800 g for 5 min and quantified using Coomassie protein assay reagent (Pierce, Rockfold, Ill.). 25 μg of total proteins per point were separated by SDS-PAGE and electro-blotted to nitrocellulose. The blots were blocked in 5% non-fat milk in PBS-T and probed for 1 h with the appropriate dilution of primary antibody. Blots were washed 3×10 min in PBS-T and then incubated with a 1:2000 dilution of peroxidase-conjugated secondary antibody for 1 h at room temperature. Blots were again washed 3×10 min in PBS-T and then developed by enhanced chemiluminesence. Where indicated, blots were stripped and re-probed with antibodies directed against actin.
(§2) Primary antibodies for both p21^WAF1/CIP1 and p27^KIP1 (Transduction Laboratories, Lexington, Ky.) were used in a 1:1000 dilution; PARP (1:1000; Oncogene Research Products, Cambridge, Mass.); pro-caspase 3 (1:1000; Transduction Laboratories); cytochrome c (1:2000; Pharmingen); bcl-2 (1:2000; DAKO, Denmark); bax (1:1000; Santa Cruz Biotechnology, Inc., Santa Cruz, Calif.); bid (1:1000; Cell Signaling, Beverly, Mass.); XIAP (1:1000; Cell Signaling); Mcl-1 (1:1000; Pharmingen); bak (1:1000; Calbiochem); c-Myc (1:1000; Pharmingen, San Diego, Calif.); actin (1:2000; Sigma Chemicals, St. Louis, Mo.); cyclins-D1, -A and -E (1:1000; Pharmingen); pRb, underP-pRb, pRb-CDK2 and pRb-CDK4 (all 1:1000; Pharmingen); Ac-H3 and Ac-H4 (both 1:1000; Upstate Biotechnology, Lake Placid, N.Y.); E2F-1 (Upstate Biotechnology). Secondary antibodies conjugated to horseradish peroxidase were obtained from Kirkegaard and Perry Laboratories, Inc. (Gaithersburg, Md.). Coomassie protein assay reagent was purchased from Pierce (Rockford, Ill.), and an enhanced chemiluminescence kit was obtained from New England Nuclear (Boston, Mass.). The pan-caspase inhibitor BOC-D-fmk and the caspase 8 inhibitor Z-IETD-fmk were purchased from Enzyme System Products (Livermore, Calif.) All other chemicals or reagents were purchased from Sigma.

Bcl-2 = assay: Western analysis of Bcl-2 cleavage in U937 cells; conditions: SB 1 mM, FP 100 nM, 12 and 24 hr
Experimental: as §1, with “actin. […]” for “actin.”

Mcl-1 = assay: Western analysis of Mcl-1 in U937 cells; conditions: 100 nM FP, 1 mM SB, 12 and 24 hours
Experimental: as §1, with “actin. […]” for “actin.”

cyclin D1 = assay: Western analysis of cyclin D1 in U937 cells
Experimental: as §1
as §2, with “The pan-caspase inhibitor BOC-D-fmk and the caspase 8 inhibitor Z-IETD-fmk were purchased from Enzyme System Products (Livermore, Calif.) All other chemicals or reagents were purchased from Sigma.” left out

SMILES	percentage of cells displaying a loss of Δψm (U937 cells [1])	expression of the differentiation marker CD11b (U937 cells [2])	levels of underphosphorylated pRb (pRb)	cleavage of Bcl-2 (rapidly migrating species) (Bcl-2)	levels of Mcl-1 (Mcl-1)	cyclin D1 protein (cyclin D1; SB 1 mM 24 hours, FP and SB 12 hours)	loss of mitochondrial membrane potential (Δψm) (U937 cells [1]; 1 and 1.5 μM SAHA and FP (100 nM))	loss of mitochondrial membrane potential (Δψm) (U937 cells [1]; FP 100 nM, PMA 10 nM, 4-8 h exposure)	full-length underphosphorylated pRb (pRb; 10 nM PMA, FP 50, 80 or 100 nM, 24 h)	FP concentration at which reduction in cyclin D1 levels was first observed (cyclin D1; 12 and 24 hours treatment) [nM]	FP concentration at which reduction in cyclin D1 levels was virtually complete (cyclin D1; 12 and 24 hours treatment) [nM]
CCCC(=O)[O-].[Na+] [SB, sodium butyrate]	no effect	increased expression of the differentiation marker CD11b	substantial increase	faintly discerned	minimal effects	moderate decrease					
CN1CC[C@H](c2c(O)cc(O)c3c(=O)cc(-c4ccccc4Cl)oc23)[C@H](O)C1 [FP, Flavopiridol]	modest increase	not accompanied by an increase in CD11b expression	did not affect	faintly discerned	reductions in levels of Mcl-1		no effect	reductions were noted	minimal effect	100	300
